# Results: publication PMC5055185, “Dual pharmacological inhibition of glutathione and thioredoxin systems synergizes to kill colorectal carcinoma stem cells” (Cancer Medicine, 2016)
# Values joined by “and” are separate entries in the source; they are usually repeats but may differ in a detail not shown here. Equal entries are not always repeated.
# Assays:
# [1] = tested on: TIG‐102 dermal fibroblasts; experiment: cell survival (trypan blue exclusion, 5 days), TIG-102; type: cell-based, human; details: for IC50: TIG102, cellular survival, 5 days; for Ratio of survived cells (Drugs treated/Untreated), Average / Ratio of survived cells (Drugs treated/Untreated), single passage points #: TIG-102
# Protocol: (§1) Modified procedures of CTOS culture 16 were described elsewhere 10. […] The culture medium was serum‐free advanced DMEM/F‐12 (GIBCO, Waltham, MA) supplemented with FGF‐2 (10 ng/mL, ReproCell, Yokohama, Japan), penicillin ([…], Wako, Osaka, Japan), streptomycin (0.1 mg/mL,Wako), gentamicin (50 μg/mL, Wako), and fungizone (0.25 μg/mL, GIBCO). DLD‐1 and HCT116 CRC cell lines were purchased from JCRB Cell Bank (Osaka, Japan) and RIKEN BioResource Center (Ibaraki, Japan), respectively. In order to estimate pharmacological side effects against normal tissues, human diploid fibroblasts were purchased (JCRB Cell Bank) as model cells. The origins of the fibroblasts were as follows: OUMS‐36 (embryo), TIG‐3 (fetal lung), TIG‐111 (dermal fibroblasts [DFs] from individual), TIG‐119 (DFs from individual), and TIG‐102 (DFs from individual). Adult DFs were purchased from Kurabo (Osaka, Japan). CRC cell lines and fibroblasts were maintained under supplier‐recommended culture conditions. Since the culture conditions are different between fibroblasts and CTOSs, we need to be cautious about the interpretation of data (i.e., lateral comparison between them). […] Colorectal CTOSs display augmented survival through maintaining epithelial structure with E‐cadherin 16. On the other hand, the establishment of conventional cell lines (adherent culture) are much less efficient because constant cell division and autonomous survival are required for the procedure. When we choose CTOSs instead of cancer cell lines, we lose the equivalent condition (adherent culture) as a trade‐off.
# Each drug's half‐maximal inhibitory concentration (IC50) was calculated based on live cell number ratios (drug treated/untreated × 100%) obtained from serial dilution of drug concentration. The length of drug exposure was 5 days. Each number of live cells was counted automatically by trypan blue exclusion (LUNA automated cell counter, Logos Biosystems, Anyang, South Korea). Cancer spheroids were dispersed with serial treatments (20 min each) of TrypLE™ and Accumax™. Thus, IC50 was determined based on cellular survival, but not on proliferation. We chose the survival index instead of the speed of growth because CTOSs in vitro show very slow proliferation (quiescence), which is one of the hallmarks of CSCs 2. The IC50 values of fibroblasts were accordingly determined based on cellular survival index during quiescence (by contact inhibition). […] To quantify the synergism of two distinct drugs, Combination Index (CI) was calculated 21. A CI value of about 1 (0.90–1.10) was defined as nearly additive and CI values more than (>1.10) and less than (<0.90) were defined as antagonism and synergism, respectively. IC50 and CI were determined using CompuSyn software (ComboSyn, Paramus, NK).
# [2] = tested on: CTOS71 colorectal cancer tissue‐originated spheroids; experiment: cell survival (trypan blue exclusion, 5 days), CTOS71; type: cell-based, human; details: for IC50: CTOS71, cellular survival, 5 days; for Ratio of survived cells (Drugs treated/Untreated), Average / Ratio of survived cells (Drugs treated/Untreated), single passage points #: CTOS#71
# Description: All experimental procedures were approved by the animal facility at Dokkyo Medical University (ID: 951) and were described elsewhere 10. The existence of CSCs has been experimentally proven through serial xenotransplantation and tumorigenesis 2, 14. […] These subcutaneous tumors were again subjected to enzymatic dissociation and some of the tumor cells were subcutaneously transplanted into other mice. […] Seven cases (CTOS:40, 42, 68, 71, 76, 86, 88) were used for in vitro experiments.
# as §1
# Each drug's half‐maximal inhibitory concentration (IC50) was calculated based on live cell number ratios (drug treated/untreated × 100%) obtained from serial dilution of drug concentration. The length of drug exposure was 5 days. Each number of live cells was counted automatically by trypan blue exclusion (LUNA automated cell counter, Logos Biosystems, Anyang, South Korea). Cancer spheroids were dispersed with serial treatments (20 min each) of TrypLE™ and Accumax™. Thus, IC50 was determined based on cellular survival, but not on proliferation.
# [3] = tested on: NRF2 target genes in human embryonic fibroblasts OUMS36 or TIG-3; experiment: qRT-PCR of NRF2 and TP53 target genes in fibroblasts; type: cell-based; details: auranofin 2 μmol/L or piperlongumine 5 μmol/L for 24 h
# Protocol: Total RNA was purified using RNAiso Plus (Takara, Osaka, Japan). Reverse transcription was performed using PrimeScript™ with gDNA Eraser (Takara). For quantifying the copy number of each mRNA, we used a StepOne™ Real‐Time PCR System (Applied Biosystems, Waltham, MA) and the Taqman® method. Data were calculated according to the modified delta‐cycle of threshold (ΔCT) method. Normalized Log2 expression was defined as follows: (Log2 expression of a gene of interest) = 30 (arbitrary constant) + (CT of 18S rRNA) − (CT of a gene of interest). We used Log2 parameter for statistical analysis because mRNA expression follows a log‐normal distribution, whereas ΔCT follows normal distribution. A gene‐specific fluorescent probe was designed using a web‐based program (https://qpcr.probefinder.com/organism.jsp). […] Gene‐specific Taqman® probes were purchased from Life Technologies, (Waltham, MA, for Cat#, see Table S1 SpreadSheet2). For PCR, Thunderbird® Probe qPCR mix (Toyobo, Osaka, Japan) was used and the PCR conditions consisted of 40 cycles of two steps (95°C for 15 sec and 60°C for 50 sec).
# To investigate whether NRF2 compensation occurs in fibroblasts, we quantified gene induction of NRF2 target genes by auranofin (2 μmol/L for 24 h) or piperlongumine (5 μmol/L for 24 h). […] Basal phosphorylation of NRF2 was lower in fibroblasts, compared to CTOSs (Fig. S5B). The significance of expression changes due to the exposure were as follows: GCLM (Fig. S6, Aura: P = 0.001, up‐regulated, Pipe: P = 0.009, up‐regulated), TXNRD1 (Fig. S6, Aura: P = 0.001, up‐regulated, Pipe: P = 0.439), and G6PD (Fig. S6, Aura: P = 0.001, up‐regulated, Pipe: P = 0.130).
# Human embryonic fibroblasts OUMS36 or TIG-3 was incubated with designated concentration of inhibitor for 24 hours. mRNA expression of each gene was quantified by real-time RT-PCR and expression level was indicated as relative Log2 expression. Each bar indicates mean value of Log2 expression (n=3 at different passage points). Error bar indicates standard deviation. P-values of difference are described in Results.
# [4] = tested on: phosphorylated NRF2 in embryonic fibroblasts (OUMS and TIG3); experiment: NRF2 phosphorylation by western blotting, embryonic fibroblasts; type: cell-based, human; details: 24 hours, Auranofin 2µM, Piperlongumine 5µM
structure (smiles),measurement,setting,value
"CC[PH](CC)(CC)[Au][S][C@@H]1O[C@H](COC(C)=O)[C@@H](OC(C)=O)[C@H](OC(C)=O)[C@H]1OC(C)=O [Aura, Auranofin]",IC50,[1],1.09 µM
same,"Ratio of survived cells (Drugs treated/Untreated), Average",[1]; Aura 1 microM,48.5%
same,"Ratio of survived cells (Drugs treated/Untreated), single passage points #",[1]; Aura 1 microM,44% and 53%
same,"Ratio of survived cells (Drugs treated/Untreated), Average",[1]; Aura 2 microM,21%
same,"Ratio of survived cells (Drugs treated/Untreated), Average",[1]; Aura 4 microM,0%
same,"Ratio of survived cells (Drugs treated/Untreated), single passage points #",[1]; Aura 4 microM,0%
same,IC50,[2],2.21 µM
same,"Ratio of survived cells (Drugs treated/Untreated), Average",[2]; Aura 1 microM,70.2%
same,"Ratio of survived cells (Drugs treated/Untreated), single passage points #",[2]; Aura 1 microM,81% and 77% and 62% and 56% and 75%
same,"Ratio of survived cells (Drugs treated/Untreated), Average",[2]; Aura 2 microM,55.3333%
same,"Ratio of survived cells (Drugs treated/Untreated), Average",[2]; Aura 4 microM,33.1429%
same,G6PD mRNA expression change,[3],up‐regulated
same,GCLM mRNA expression change,[3],up‐regulated
same,TXNRD1 mRNA expression change,[3],up‐regulated
same,NRF2 phosphorylation,[4],less efficiently phosphorylated
"COc1cc(/C=C/C(=O)N2CCC=CC2=O)cc(OC)c1OC [Pipe, Piperlongumine]",IC50,[1],7.89 µM
same,"Ratio of survived cells (Drugs treated/Untreated), Average",[1]; Pipe 2.5 microM,105.667%
same,"Ratio of survived cells (Drugs treated/Untreated), single passage points #",[1]; Pipe 2.5 microM,83% and 86% and 148%
same,"Ratio of survived cells (Drugs treated/Untreated), Average",[1]; Pipe 5 microM,86.3333%
same,"Ratio of survived cells (Drugs treated/Untreated), single passage points #",[1]; Pipe 5 microM,54% and 100% and 105%
same,"Ratio of survived cells (Drugs treated/Untreated), Average",[1]; Pipe 10 microM,27.6667%
same,IC50,[2],6.01 µM
same,"Ratio of survived cells (Drugs treated/Untreated), Average",[2]; Pipe 2.5 microM,80.8%
same,"Ratio of survived cells (Drugs treated/Untreated), single passage points #",[2]; Pipe 2.5 microM,96% and 59% and 102% and 88%
same,"Ratio of survived cells (Drugs treated/Untreated), Average",[2]; Pipe 5 microM,60.8%
same,"Ratio of survived cells (Drugs treated/Untreated), Average",[2]; Pipe 10 microM,27.8%
same,"Ratio of survived cells (Drugs treated/Untreated), single passage points #",[2]; Pipe 10 microM,21% and 20% and 35% and 27% and 36%
same,GCLM mRNA expression change,[3],up‐regulated
same,NRF2 phosphorylation,[4],not
same,NRF2 phosphorylation,[4]; listed as Piperlongmine,almost negligible
